Data from ChEMBL document CHEMBL1124563, “On the structure selectivity problem in drug design. A comparative study of benzylpyrimidine inhibition of vertebrate and bacterial dihydrofolate reductase via molecular graphics and quantitative structure-activity relationships” (J Med Chem, 1989).

Key:
Dihydrofolate reductase [1] = biological target: T1, Dihydrofolate reductase (Gallus gallus, UniProt P00378)
T1 sequence (P00378 whole entry): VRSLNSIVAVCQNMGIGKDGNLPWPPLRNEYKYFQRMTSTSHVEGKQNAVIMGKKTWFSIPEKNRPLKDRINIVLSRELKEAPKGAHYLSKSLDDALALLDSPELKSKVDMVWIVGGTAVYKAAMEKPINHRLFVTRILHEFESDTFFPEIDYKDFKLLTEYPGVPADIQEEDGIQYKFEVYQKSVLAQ
Description: Inhibitory activity against chicken liver dihydrofolate reductase

[2] = Partition coefficient (logD) (aqueous phase 0.1 N HCl)
Dihydrofolate reductase [3] = biological target: Dihydrofolate reductase (Lactobacillus casei, UniProt P00381)
Description: Inhibitory activity against Lactobacillus casei dihydrofolate reductase

[4] = Partition coefficient (logD) (0.01 N NaOH); format: physicochemical
[5] = Toxic index against Dihydrofolate reductase; format: ADME

Chain of Dihydrofolate reductase (Lactobacillus casei, UniProt P00381) (P00381 whole entry): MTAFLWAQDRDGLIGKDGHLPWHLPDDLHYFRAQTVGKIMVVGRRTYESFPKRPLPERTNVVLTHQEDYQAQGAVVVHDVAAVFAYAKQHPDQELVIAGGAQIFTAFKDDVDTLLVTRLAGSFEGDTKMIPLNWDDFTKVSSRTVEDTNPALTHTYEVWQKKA

Row | Structure (SMILES) | Ki (Dihydrofolate reductase [1]) | logD ([2]; 0.1 N HCl (aqueous phase)) | Ki (Dihydrofolate reductase [3]) | logD ([4]; 0.01 N NaOH, read-out: logD) | other results
1 | COc1ccc(Cc2cnc(N)nc2N)cc1OCc1ccccc1 | 18200 nM | – | 123 nM | 2.44 | –
2 | CS(=O)(=O)Oc1ccc(Cc2cnc(N)nc2N)cc1 | 49000 nM | – | 324 nM | 0.6 | –
3 | COc1cccc(Cc2cnc(N)nc2N)c1 | – | – | – | – | logD ([4]; octanol/water): 1.54
4 | Nc1ncc(Cc2ccccc2)c(N)n1 | – | – | – | – | logD ([4]; octanol/water): 1.54
5 | COCCOc1ccc(Cc2cnc(N)nc2N)cc1OCCOC | – | – | – | – | logD ([2]; octanol/water): 1.89
6 | COc1ccc(Cc2cnc(N)nc2N)cc1C(F)(F)F | – | -0.18 | 79.4 nM | – | –
7 | C=C(C)c1c(OC)cc(Cc2cnc(N)nc2N)cc1OC | 67600 nM | – | 45.7 nM | 2.07 | –
8 | COc1cc(Cc2cnc(N)nc2N)ccc1OCc1ccccc1 | 19100 nM | – | 316 nM | 2.66 | –
9 | Nc1ncc(Cc2ccc(OC(F)(F)F)cc2)c(N)n1 | 47900 nM | – | – | – | –
10 | Nc1ncc(Cc2ccc(OCc3ccccc3)cc2)c(N)n1 | 14800 nM | – | 447 nM | – | –
11 | CCCCCCCOc1ccc(Cc2cnc(N)nc2N)cc1 | – | – | 4170 nM | – | –
12 | Nc1ncc(Cc2ccc3c(c2)OCO3)c(N)n1 | 20900 nM | – | 457 nM | – | –
13 | COCCOc1c(Cc2cnc(N)nc2N)ccc(OC)c1OC | 229000 nM | -1.81 | 550 nM | – | Toxic index [5]: 2.62
14 | Nc1ncc(Cc2ccc(-c3ccccc3)cc2)c(N)n1 | 5500 nM | 0.98 | 389 nM | – | –
15 | CCOc1cc(Cc2cnc(N)nc2N)cc(OCC)c1-n1cccc1 [EPIROPRIM] | 46800 nM | – | 46.8 nM | – | –
16 | CCOc1cc(Cc2cnc(N)nc2N)ccc1OCc1ccccc1 | 18200 nM | 1 | 309 nM | – | –
17 | CCCCCCCCOc1cc(Cc2cnc(N)nc2N)ccc1OC | 19500 nM | 2.54 | 316 nM | – | –

The next lines start with results.

Row | Ki (Dihydrofolate reductase [1]) | logD ([2]; 0.1 N HCl (aqueous phase)) | Ki (Dihydrofolate reductase [3]) | logD ([4]; 0.01 N NaOH, read-out: logD) | Structure (SMILES) | other results
18 | 67600 nM | -1.47 | 417 nM | – | Nc1ncc(Cc2ccc(O)cc2)c(N)n1 | –
19 | – | – | – | 2.88 | CCCCOCc1cccc(Cc2cnc(N)nc2N)c1 | –
20 | 347000 nM | -2.17 | 151 nM | – | CCc1cc(Cc2cnc(N)nc2N)cc(NC(C)=O)c1CO | Toxicity index [5]: 3.36
21 | 141000 nM | – | 257 nM | 0.74 | COc1ccc(Cc2cnc(N)nc2N)cc1O | –
22 | 49000 nM | – | 339 nM | 0.64 | COc1cc(Cc2cnc(N)nc2N)ccc1O | –
23 | – | -1.34 | – | – | Nc1ncc(Cc2cccc(O)c2)c(N)n1 | –
24 | 74100 nM | – | 646 nM | – | CCCOc1cc(Cc2cnc(N)nc2N)cc(OCCC)c1 | –
25 | 64600 nM | -1.87 | 288 nM | – | COCCOc1ccc(Cc2cnc(N)nc2N)cc1OC | –
26 | 72400 nM | – | 389 nM | – | CCOc1cc(Cc2cnc(N)nc2N)cc(OCC)c1 | –
27 | 263000 nM | -2.23 | 195 nM | – | CCc1cc(Cc2cnc(N)nc2N)cc(CO)c1CO | Toxic index [5]: 3.13
28 | 5620 nM | – | 132 nM | – | CCc1cc(Cc2cnc(N)nc2N)cc(CC)c1CC | –
29 | – | – | – | 0.97 | COc1ccc(Cc2cnc(N)nc2N)cc1OC [DIAVERIDINE] | –
30 | 29500 nM | -1.92 | 214 nM | – | COc1ccc(Cc2cnc(N)nc2N)cc1OS(C)(=O)=O | –
31 | – | -2.23 | – | – | CC(=O)Nc1ccc(Cc2cnc(N)nc2N)cc1[N+](=O)[O-] | –
32 | – | – | 56.2 nM | 1.54 | COc1cc(Cc2cnc(N)nc2N)cc(OC)c1SC [METIOPRIM] | –
33 | – | – | 52.5 nM | 2.01 | COc1cc(Cc2cnc(N)nc2N)cc(OC)c1Br [BRODIMOPRIM] | –
34 | – | – | – | 0.22 | Nc1ccc(Cc2cnc(N)nc2N)cc1 | –
35 | 43700 nM | – | 589 nM | – | CCCOc1cc(Cc2cnc(N)nc2N)cc(OCC)c1 | –
36 | – | 2.08 | – | – | Nc1ncc(Cc2ccc(O)c(O)c2)c(N)n1 | –
37 | – | – | 1350 nM | – | Cc1cc(C)cc(Cc2cnc(N)nc2N)c1 | –
38 | 25700 nM | – | 363 nM | 0.6 | COc1cc(Cc2cnc(N)nc2N)ccc1OS(C)(=O)=O | –
39 | 70800 nM | – | 355 nM | – | COc1cc(Cc2cnc(N)nc2N)cc(OC)c1N(C)C [ADITOPRIM] | –
40 | 17000 nM | – | 2000 nM | – | CCCCCCCCOc1c(OC)cc(Cc2cnc(N)nc2N)cc1OC | –
